Measured values: US4252804A, “Therapeutically useful 3,4,5-trimethoxybenzene derivatives” (Metabio-Joullie, priority 1977, dated 1981)

Experiment: Acute toxicity for oral administration in mice
Type: in vivo
Conditions: mouse, in vivo, po, suspension in 10% gum arabic
Protocol: 1--ACUTE TOXICITY FOR ORAL ADMINISTRATION IN MICE
The compounds are administered orally in increasing doses in suspension in a 10% gum arabic solution to groups of 5 .female. mice of mean weight 25 g. The 50% lethal doses (LD 50) are calculated by the method of KARBER and BEHRENS (Arch. Exp. Path. Pharmakol. 1935, 177, 379-388).
The LD 50's found are summarised in Table IV below and indicate that the tested compounds have low toxicity.

`COc1cc(NC(=O)N2CCN(C(c3ccccc3)c3ccc(Cl)cc3)CC2)cc(OC)c1OC` (stereo not drawn) [compound 795] and `COc1cc(NCC(=O)N2CCN(c3ccccc3)CC2)cc(OC)c1OC` [compound 837] cannot be ordered by LD50: greater than 5000 mg/kg for the first, greater than 5000 mg/kg for the second.

Compared with `COc1cc(NC(=O)N2CCCCCC2)cc(OC)c1OC` [compound 813], `COc1cc(NC(=O)N2CCCO2)cc(OC)c1OC` [compound 820] is 2.4-fold lower in LD50: 3000 mg/kg for the first, 1250 mg/kg for the second.

`COc1cc(NC(=O)CN2CCN(CC(=O)Nc3cc(OC)c(OC)c(OC)c3)CC2)cc(OC)c1OC` [compound 848] and `COc1cc(NC(=O)N2CCN(C(=O)Nc3cc(OC)c(OC)c(OC)c3)CC2)cc(OC)c1OC` [compound 840] cannot be ordered by LD50: greater than 5000 mg/kg for the first, greater than 5000 mg/kg for the second.

First: CCCCN(CCCC)C(=O)Nc1cc(OC)c(OC)c(OC)c1 [compound 780]
Second: C=C(C)CNC(=O)Nc1cc(OC)c(OC)c(OC)c1 [compound 812]
The LD50 of the first is higher: greater than 5000 mg/kg for the first, 2000 mg/kg for the second.

Compared with `C=CCN(C(=O)Nc1cc(OC)c(OC)c(OC)c1)C1CCCCC1` [compound 811], `COc1cc(NC(=O)NC2CCCCCCC2)cc(OC)c1OC` [compound 781] is higher in LD50: 5000 mg/kg for the first, greater than 5000 mg/kg for the second.

`COc1cc(NC(=O)N2CCOc3ccc(Cl)cc32)cc(OC)c1OC` [compound 770] and `COc1cc(NC(=O)CN2CCOc3ccccc32)cc(OC)c1OC` [compound 792] cannot be ordered by LD50: greater than 5000 mg/kg for the first, greater than 5000 mg/kg for the second.

Compared with `COc1cc(NCC(=O)N2CCOc3ccccc32)cc(OC)c1OC` [compound 782], `COc1cc(NCC(=O)N2CCOCC2)cc(OC)c1OC` [compound 793] is lower in LD50: greater than 5000 mg/kg for the first, 1250 mg/kg for the second.

First: COc1cc(NC(=O)N2CCOC(C)C2)cc(OC)c1OC (stereo not drawn) [compound 816]
Second: COc1cc(NC(=O)NCC2CCCO2)cc(OC)c1OC (stereo not drawn) [compound 797]
The LD50 of the first is 1.8-fold lower: 2500 mg/kg for the first, 4400 mg/kg for the second.

`COc1cc(NC(=O)Nc2ccnc3cc(Cl)ccc23)cc(OC)c1OC` [compound 777] and `COc1cc(NC(=O)NCCc2ccccc2)cc(OC)c1OC` [compound 783] cannot be ordered by LD50: greater than 5000 mg/kg for the first, greater than 5000 mg/kg for the second.

`COc1cc(NC(=O)NC(C)CN(C)C)cc(OC)c1OC` (stereo not drawn) [compound 784] and `COc1cc(NC(=O)NCC2CCCCO2)cc(OC)c1OC` (stereo not drawn) [compound 815] are within 1.5-fold of each other in LD50: 3380 mg/kg for the first, 5000 mg/kg for the second.

`COc1cc(NC(=O)CN2CCN(c3cccc(C(F)(F)F)c3)CC2)cc(OC)c1OC` [compound 838] and `COc1cc(NC(=O)CCN2CCN(c3cccc(C(F)(F)F)c3)CC2)cc(OC)c1OC` [compound 841] cannot be ordered by LD50: greater than 5000 mg/kg for the first, greater than 5000 mg/kg for the second.

In the case of `COc1cc(N(CCN2CCOCC2)C(=O)N2CCOCC2)cc(OC)c1OC` [compound 822], the LD50 is reported as 5000 mg/kg.

Same assay, conditions: mouse, in vivo, suspension in 10% gum arabic

`COc1cc(NC(=O)CCN2CCC(O)(c3ccc(Cl)cc3)CC2)cc(OC)c1OC` [compound 829] and `COc1cc(NC(=O)ON2CCOCC2)cc(OC)c1OC` [compound 828] cannot be ordered by LD50: greater than 5000 mg/kg for the first, greater than 5000 mg/kg for the second.

Compared with `COc1cc(OC(=O)N2CCOc3ccccc32)cc(OC)c1OC` [compound 773], `COc1cc(OC(=O)N2CCN(C)CC2)cc(OC)c1OC` [compound 767] is lower in LD50: greater than 5000 mg/kg for the first, 1020 mg/kg for the second.
